Measured values as given in patent US6410723B1, “VDUP1 promoter and methods of use thereof” (priority 2000, dated 2002).

Assays:
VDUP1 promoter = assay: Secreted alkaline phosphatase reporter assay, COS cells transiently transfected with VDUP1 promoter constructs, treated with Vitamin D3; assay type: cell-based, monkey; settings: 200 nM Vitamin D3, all constructs tested, AP reporter
Procedure: (§1) FIG. 5 is a graph showing secreted alkaline phosphatase (SEAP) activity upon transient transfection of COS cells of various VDUP1 promoter constructs operably linked to an alkaline phosphatase encoding nucleotide sequence, treated or untreated with 200 nM Vitamin D3.
(§2) Four deletion constructs were generated corresponding to 5′ end lengths of 1448bp (SEQ ID NO:1), 1002bp (SEQ ID NO:4), 597bp (SEQ ID NO:3), and 452bp (SEQ ID NO:2) as shown in FIG. 1. In the 452bp (SEQ ID NO:2) construct, the two Sp1 elements are deleted. Each fragment was generated by PCR from the 3.0 kb EcoRI-BamHI subclone, and introduced upstream of the secreted alkaline phosphatase (AP) reporter nucleic acid sequence. Representative clones of each were verified by DNA sequencing. The VDUP1 constructs were then transfected into COS cells and screened for expression in comparison to an SV40 immediate early promoter driven AP construct.

[1] = system: SV40 immediate early promoter; assay: Secreted alkaline phosphatase reporter assay, COS cells transfected with SV40 promoter control construct, treated with vitamin D3; assay type: cell-based; settings: addition of vitamin D3 (200 nM), AP reporter
Procedure: as §1, §2

VDUP1 gene = settings: human HL-60 cells; cited from earlier work
thioredoxin (TRX) = settings: HL-60 cells treated with vitamin D3; cited from earlier work

Row | SMILES | enhancement of VDUP1 expression (VDUP1 promoter) | induction of SV40 control [1] | induction of VDUP1 (VDUP1 gene) | expression of TRX (thioredoxin (TRX))
1 | C=C1/C(=C\C=C2/CCC[C@]3(C)[C@@H]([C@H](C)CCCC(C)(C)O)CC[C@@H]23)C[C@@H](O)C[C@@H]1O [Vitamin D3, 1,25-dihydroxyvitamin D3] | 25% | not induced | strongly induced | significant decrease
2 | C[C@@H]1C[C@@H]([C@H](O)CC2CC(=O)NC(=O)C2)C(=O)[C@@H](C)C1 [cyclohexamide] |  |  | several fold | 
